Measurements from article PMC5845537 (Frontiers in Pharmacology, 2018).
Like-named read-outs stand apart in the source and are kept apart here. Marks after values point to notes of the source that are not given here.

Legend:
GABAA receptor [1] = tested on: GABAA receptor; set-up: method as in Kim et al., 2000; settings: i.c.v. infusion 1 pmol/10 μL/h for 7 days; cortex and CA3 sub-region of the hippocampus; ref Kim et al., 2000; cited from earlier work
mice = tested on: mice; set-up: method as in Hashimoto et al. (2007); settings: ref Hashimoto et al. (2007), cited from earlier work; for effect on deficits in OR performance: repeated administration
Long-Evans rats [2] = tested on: Long-Evans rats; set-up: method as in Redrobe et al., 2012; settings: same subPCP model; ref Redrobe et al., 2012; cited from earlier work
GABAB receptor = molecular target: T1, GABAB receptor (Rattus norvegicus, UniProt Q9Z0U4); assay: Ex vivo autoradiography, GABAB receptor saturation binding ([3H]CGP54626), medial prefrontal cortex; settings: rat medial prefrontal cortex; for GABAB receptors Bmax: [3H]CGP54626
T1 construct: 12 μm coronal sections were collected from an area ranging from approximately +4.2 mm to +2.3 mm anterior to Bregma; from tissue; host or cells: rat brain cryosections, medial prefrontal cortex (prelimbic and infralimbic)
T1 sequence (Q9Z0U4 17-960 limits assumed): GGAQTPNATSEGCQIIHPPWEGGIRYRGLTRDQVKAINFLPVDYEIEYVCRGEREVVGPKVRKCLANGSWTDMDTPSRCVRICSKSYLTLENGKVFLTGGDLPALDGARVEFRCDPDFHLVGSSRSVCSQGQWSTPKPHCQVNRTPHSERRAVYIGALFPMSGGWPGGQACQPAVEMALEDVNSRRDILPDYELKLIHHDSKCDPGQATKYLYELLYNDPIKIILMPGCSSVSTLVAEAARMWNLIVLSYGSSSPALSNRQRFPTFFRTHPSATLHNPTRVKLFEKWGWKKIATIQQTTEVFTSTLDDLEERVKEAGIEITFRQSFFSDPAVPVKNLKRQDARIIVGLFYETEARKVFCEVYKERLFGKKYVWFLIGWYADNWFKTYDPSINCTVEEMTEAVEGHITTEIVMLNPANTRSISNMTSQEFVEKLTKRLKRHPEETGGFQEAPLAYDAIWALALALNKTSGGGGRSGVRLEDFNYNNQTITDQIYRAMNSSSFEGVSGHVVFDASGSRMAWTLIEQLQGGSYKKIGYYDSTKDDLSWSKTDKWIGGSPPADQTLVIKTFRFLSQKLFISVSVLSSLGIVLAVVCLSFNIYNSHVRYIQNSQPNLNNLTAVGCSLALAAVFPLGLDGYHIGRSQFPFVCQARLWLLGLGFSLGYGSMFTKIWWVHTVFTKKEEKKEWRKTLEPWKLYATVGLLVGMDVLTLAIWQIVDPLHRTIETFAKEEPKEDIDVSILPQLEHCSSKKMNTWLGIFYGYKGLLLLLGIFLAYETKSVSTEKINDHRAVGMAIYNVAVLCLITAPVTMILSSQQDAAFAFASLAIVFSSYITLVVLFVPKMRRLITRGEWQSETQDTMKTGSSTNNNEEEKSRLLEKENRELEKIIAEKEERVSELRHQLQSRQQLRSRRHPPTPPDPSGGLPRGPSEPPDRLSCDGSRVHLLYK
T1 sequence (O88871 41-940 partner): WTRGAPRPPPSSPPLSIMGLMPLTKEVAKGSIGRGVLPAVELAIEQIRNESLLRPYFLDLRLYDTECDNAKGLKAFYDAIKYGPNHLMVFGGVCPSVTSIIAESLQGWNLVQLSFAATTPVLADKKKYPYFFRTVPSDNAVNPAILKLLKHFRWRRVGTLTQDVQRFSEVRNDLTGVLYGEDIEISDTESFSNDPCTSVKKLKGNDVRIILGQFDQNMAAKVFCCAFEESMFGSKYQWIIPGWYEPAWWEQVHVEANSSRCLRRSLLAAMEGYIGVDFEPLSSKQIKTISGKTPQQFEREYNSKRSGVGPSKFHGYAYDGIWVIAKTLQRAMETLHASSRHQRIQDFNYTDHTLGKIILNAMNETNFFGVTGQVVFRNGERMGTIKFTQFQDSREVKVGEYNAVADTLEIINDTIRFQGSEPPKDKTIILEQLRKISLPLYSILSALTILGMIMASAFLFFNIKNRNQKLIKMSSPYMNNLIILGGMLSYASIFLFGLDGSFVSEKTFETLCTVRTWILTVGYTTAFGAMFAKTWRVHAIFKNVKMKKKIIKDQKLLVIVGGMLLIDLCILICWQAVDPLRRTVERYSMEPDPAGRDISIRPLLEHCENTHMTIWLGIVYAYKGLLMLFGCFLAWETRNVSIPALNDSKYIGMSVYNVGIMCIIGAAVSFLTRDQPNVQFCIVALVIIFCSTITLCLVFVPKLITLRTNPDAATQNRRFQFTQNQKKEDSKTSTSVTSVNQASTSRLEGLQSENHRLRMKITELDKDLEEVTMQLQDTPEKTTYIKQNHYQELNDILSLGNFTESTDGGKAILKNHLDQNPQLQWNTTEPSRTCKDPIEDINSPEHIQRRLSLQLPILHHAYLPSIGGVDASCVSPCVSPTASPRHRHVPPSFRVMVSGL
Excerpt: (§1) Rats used in ex vivo autoradiography (EVA) experiments were randomly assigned to one of four experimental groups characterized by either subchronic saline or PCP (as described above) along with either vehicle or vortioxetine-infused food (1.8 g vortioxetine/kg food weight, as described in the attentional set shifting task). On day 8 of PCP withdrawal, rats were anesthetized using CO2 and killed by decapitation. Brains were quickly and gently removed from the skull, flash frozen on powdered dry ice, and stored at -20°C until sectioning. Later, 12 μm coronal sections were collected from an area ranging from approximately +4.2 mm to +2.3 mm anterior to Bregma ([Paxinos and Watson, 1998]) using a cryostat (MicroM, Germany) and were thaw-mounted on glass microscope slides. This range of coronal slices was chosen in order to study the prelimbic and infralimbic subregions of the medial prefrontal cortex, given the importance of these regions in tests of executive function such as the attentional set shifting task ([Ng et al., 2007]). After the tissue mounted on the microscope slides had dried thoroughly (in order to reduce damage from freezing), slides were packed into slide boxes with desiccator pellets, and stored at -20°C for use in EVA saturation binding and competition experiments.
(§2) Each of the EVA procedures used in this study are variations on a similar theme. On the day of an experiment, slide-boxes were defrosted under a constant stream of air at room temperature until the boxes were dry and equilibrated with the environment in terms of temperature. This step was undertaken in order to ensure brain tissue was not damaged by frosting due to a sudden change in humidity. Prior to any binding experiments, slides were preincubated in the appropriate preincubation buffer and dried at room temperature. Subsequently, tissue was incubated in an assay buffer containing a radioligand appropriate for the receptor of interest, then rinsed in assay buffer, and dried overnight in a vacuum desiccator. Specific information on the contents of the preincubation buffers, assay buffers and other assay conditions are listed in Table 2. Finally, slides were opposed to a tritium-sensitive phosphor screen (Fuji imaging plate, GE Healthcare, Pittsburgh, PA, United States) for 5 days before being read in a phosphorimager (Typhoon FLA7000, GE Healthcare). Analysis methods are listed below under statistical analyses.
(§3) In saturation binding experiments, the concentration of the relevant radioligand in the assay buffer was systematically varied in order to determine the KD and Bmax of the receptor in question. At each radioligand concentration, the non-specific binding was determined on a separate slide by including a high concentration of a non-radioactive competitor ligand in the assay buffer along with the radioligand. For GABAA receptor saturation binding experiments, [^3H]muscimol was examined in quarter log steps ranging from 0.56 to 300 nM. For GABAB receptor saturation binding experiments, [^3H]CGP54626 was examined in quarter log steps ranging from 0.17 to 100 nM.
For saturation binding studies, the primary dependent measures were pKD and Bmax. First, a standard curve was generated by measuring optical intensity from a slide of tritium standards (American Radiolabeled Chemicals, St. Louis, MO, United States) included in the slide cassette during exposure. A linear regression was performed to determine the relationship between intensity and bound radioactivity (measured on the standards in units of μCi/g). Next, average intensity values from the non-specific bound condition for each concentration of radioligand was subtracted from intensity values from the total bound condition to produce a measure of specific binding for each radioligand concentration. These optical intensity values were transformed into bound radioactivity (expressed as nCi/mg) measurements by interpolation from the standard curve noted above. […]

GABAA receptor [3] = assay: Ex vivo autoradiography, GABAA receptor saturation binding ([3H]muscimol), medial prefrontal cortex; set-up: species or system rat; settings: rat medial prefrontal cortex
Excerpt: as §1, §2, §3
For saturation binding studies, the primary dependent measures were pKD and Bmax. […] A linear regression was performed to determine the relationship between intensity and bound radioactivity (measured on the standards in units of μCi/g). […] These optical intensity values were transformed into bound radioactivity (expressed as nCi/mg) measurements by interpolation from the standard curve noted above. […]

sigma 1 receptors = molecular target: sigma 1 receptors; set-up: method as in Sanchez et al., 2003; settings: ref Sanchez et al., 2003; cited from earlier work
Long-Evans rats [4] = assay: Attentional set-shifting task (AST) in subchronic PCP-treated rats; format: in vivo, rat; settings: for trials to criterion vs vehicle/vehicle or PCP/vehicle, EDR discrimination / trials to criterion vs PCP/vehicle, ED discrimination: subPCP-treated rats
Method: Subchronic PCP treatment: The subPCP administration regimen used in rats was conducted as described in ([Goetghebeur and Dias, 2009]), which is a reliable method for inducing deficits in our hands. Rats in the subPCP experiments received injections of 5 mg/mL PCP or vehicle (saline) s.c. at a 1 mL/kg injection volume twice per day for 7 days. […] The mouse subPCP regimen was conducted as described in [Pedersen et al. (2014)]. Briefly, mice received vehicle or PCP (1.3 mg/mL concentration, 10 mL/kg injection volume) s.c once per day for 14 days followed by a 7-day washout prior to experimentation.
Each test used male Long-Evans rats (Charles River, United States) aged 5–6 weeks when arriving at the research facility.
The attentional set-shifting test (AST) methods used here were adapted from [Goetghebeur and Dias (2009)]. The apparatus used for the AST test was a 44 cm × 64 cm × 30 cm black non-transparent Perspex test box, divided into 3 equal-sized areas (a starting area separated from a choice area subdivided in two). In the choice area, two 11 cm diameter terracotta pots were placed recessed into the box floor (with a 2 cm lip remaining above the floor) and separated by a divider. Odor (oils from The Body Shop®, United Kingdom) and media cues (not previously presented to the rats) were added to the pots.
Beginning on day 3 after the cessation of PCP administration, rats were subjected to a habituation period and trained to dig for a diet reward (half a Honey Loop cereal, Nestlé®) in terracotta pots filled with sawdust. On day 7 of PCP washout, rats were subjected to a single training session in which they were required to discriminate between two pots in order to find the reward. These discriminations were either based on differences in the digging media or the pot’s odor. On day 8 rats were presented with a series of increasingly difficult discriminations: a simple discrimination (SD), a compound discrimination (CD), two intra-dimensional shifts (ID1, ID2), an intra-dimensional shift reversal (ID2R), an extra-dimensional shift (ED) and an extra-dimensional shift reversal (EDR; see Table 1). Rats were required to meet a training criterion before moving on to a new discrimination type (for specifics, see Statistical Analysis, below).
The first trial of each discrimination stage was a discovery trial in which rats were allowed to dig in both pots, and to self-correct if digging in the wrong pot. Rats were only given one discovery trial. The discovery trial was included in the trials to criterion if the rat dug first in the correct pot, but not if the rat self-corrected an incorrect initial dig.
In the acute vortioxetine study, prior to the start of behavioral experiments on Day 8 of washout from PCP treatment, animals were randomly administered either 20% CD (Veh), […], or 64 mg/kg modafinil 30 min p.o. as described above (included as a positive control). Thus, the treatment groups in the acute vortioxetine study were as follows: Veh/Veh, PCP/Veh, PCP/1 mg/kg vortioxetine, PCP/3 mg/kg vortioxetine, PCP/10 mg/kg vortioxetine, or PCP/64 mg/kg modafinil.
Food dosing lasted from the first day of sub-chronic PCP administration and until the last day of the washout period (total of 14 days). After the end of the washout period where behavioral testing started, rats were fed with the same conditioned diet, however, under food restriction (∼11 g of diet per day per rat). In addition, some PCP-treated animals were fed vehicle food, but received acute injections of either 10 mg/kg vortioxetine, or 64 mg/kg modafinil, as described above. The treatment groups for the subchronic vortioxetine administration study were as follows: Veh/Veh, PCP/Veh, PCP/0.22 g/kg vortioxetine food, PCP/1.8 g/kg vortioxetine food, PCP/10 mg/kg vortioxetine 1 h s.c., or PCP/64 mg/kg 30 min p.o.
A third experiment was conducted to examine the effects of acute SERT inhibition or 5-HT3 receptor antagonism on subPCP-induced AST impairments. […]

SERT = settings: ref Pehrson et al., 2015; cited from earlier work
[5] = acute vortioxetine study, 64 mg/kg 30 min p.o., vs PCP/Veh
[6] = subchronic vortioxetine study, acute 64 mg/kg, p < 0.001

C[C@]12N[C@H](Cc3ccccc31)c1ccccc12 [MK-801]
GABAA receptor binding ([3H]-muscimol, [3H]-flunitrazepam) (GABAA receptor [1]): significant increase

CCCN(CCC)CCc1ccc(OC)c(OCCc2ccccc2)c1 [NE-100]
effect on fluvoxamine's reversal of OR deficits (mice; sigma1 receptor antagonist given with fluvoxamine): blocked this effect

FC(F)c1ncn2c1Cn1ncnc1-c1cc(Br)ccc1-2 [RO4938581]
attenuation of subPCP-induced impairment, ED discrimination of the AST (Long-Evans rats [2]): significantly attenuated | attenuation of subPCP-induced impairment, EDR discrimination of the AST (Long-Evans rats [2]): significantly attenuated

C[C@H](NC[C@H](O)CP(=O)(O)CC1CCCCC1)c1ccc(Cl)c(Cl)c1 [[^3H]CGP54626]
GABAB receptors Bmax (GABAB receptor; treatment group PCP/Veh): 414 ± 33^a fmol/mg | GABAB receptors Bmax (GABAB receptor; treatment group PCP/Vor): 342 ± 27^a,c fmol/mg | GABAB receptors Bmax (GABAB receptor; treatment group Veh/Veh): 541 ± 38 fmol/mg | GABAB receptors Bmax (GABAB receptor; treatment group Veh/Vor): 475 ± 34 fmol/mg | GABAB receptors pKD ([3H]CGP54626) (GABAB receptor; treatment group PCP/Veh): 8.7 ± 0.08 | GABAB receptors pKD ([3H]CGP54626) (GABAB receptor; treatment group PCP/Vor): 8.7 ± 0.06 | GABAB receptors pKD ([3H]CGP54626) (GABAB receptor; treatment group Veh/Veh): 8.6 ± 0.04 | GABAB receptors pKD ([3H]CGP54626) (GABAB receptor; treatment group Veh/Vor): 8.6 ± 0.08

NCc1cc(=O)[nH]o1 [[^3H]muscimol]
GABAA receptors pKD ([3H]muscimol) (GABAA receptor [3]; treatment group PCP/Veh): 7.8 ± 0.03 | GABAA receptors pKD ([3H]muscimol) (GABAA receptor [3]; treatment group PCP/Vor): 7.6 ± 0.03^a,b,c | GABAA receptors pKD ([3H]muscimol) (GABAA receptor [3]; treatment group Veh/Veh): 7.7 ± 0.03 | GABAA receptors pKD ([3H]muscimol) (GABAA receptor [3]; treatment group Veh/Vor): 7.8 ± 0.06

CN(C)CCC[C@@]1(c2ccc(F)cc2)OCc2cc(C#N)ccc21 [escitalopram]
Ki (sigma 1 receptors): ~100 nM | trials to criterion vs vehicle/vehicle or PCP/vehicle, EDR discrimination (Long-Evans rats [4]; acute 0.5 mg/kg 1 h s.c.): did not differ | trials to criterion vs PCP/vehicle, ED discrimination (Long-Evans rats [4]; acute 0.5 mg/kg 1 h s.c., p < 0.001): significant reductions

COCCCC/C(=N\OCCN)c1ccc(C(F)(F)F)cc1 [fluvoxamine]
SERT occupancy ED80 (SERT): ≈ 1.8 mg/kg | effect on deficits in OR performance (mice): reversed deficits | effect on subPCP-induced impairments in OR performance (mice; single supra-pharmacological dose 20 mg/kg): improved

NC(=O)C[S+]([O-])C(c1ccccc1)c1ccccc1 (centres unmarked) [modafinil, Modafinil]
reversal of subPCP-induced impairment, ED discrimination (trials to criterion) (Long-Evans rats [4]; [5]): significantly reversed | reversal of subPCP-induced impairment, EDR discrimination (trials to criterion) (Long-Evans rats [4]; [5]): neither acute vortioxetine nor modafinil significantly reversed | trials to criterion vs PCP/vehicle, ED discrimination (Long-Evans rats [4]; ondansetron/escitalopram study, 64 mg/kg 30 min p.o., p < 0.001): significant reductions | trials to criterion vs vehicle/vehicle or PCP/vehicle, EDR discrimination (Long-Evans rats [4]; ondansetron/escitalopram study, 64 mg/kg 30 min p.o., p < 0.05): significantly fewer trials | AST performance in subPCP-treated rats, ED (Long-Evans rats [4]; [6]): significantly improved performance | AST performance in subPCP-treated rats, EDR (Long-Evans rats [4]; [6]): significantly improved performance

Cc1nccn1CC1CCc2c(c3ccccc3n2C)C1=O (centres unmarked) [ondansetron]
trials to criterion vs vehicle/vehicle or PCP/vehicle, EDR discrimination (Long-Evans rats [4]; acute 1.6 mg/kg 1 h s.c.): did not differ | trials to criterion vs PCP/vehicle, ED discrimination (Long-Evans rats [4]; acute 1.6 mg/kg 1 h s.c., p < 0.05): significant reductions

Fc1ccc([C@@H]2CCNC[C@H]2COc2ccc3c(c2)OCO3)cc1 [paroxetine]
effect on deficits in OR performance (mice): but not paroxetine reversed deficits | effect on subPCP-induced impairments in OR performance (mice; single supra-pharmacological dose 10 mg/kg): improved
